Assay results from ChEMBL document CHEMBL3885861, “Open TG-GATES”.

Organism: Rattus norvegicus
Assay: Open TG-GATES - Regimen: Single
Assay type: toxicity, organism-based, Sprague-Dawley
Parameters: regimen Single, gender Male, age 6 weeks
Settings: in vivo, po, 6 mg/kg, route gavage, dose level Low; for KIDNEY_L / KIDNEY_R / KIDNEY_TOTAL: tissue Kidney; for LIVER: tissue Liver; for ALT / AST / BUN / CRE / Cl / DBIL / GLC / IP / LDH / Na / RALB / TBIL / TC / TG / TP / gamma-GTP: tissue Plasma

CC/C(=C(\c1ccccc1)c1ccc(OCCN(C)C)cc1)c1ccccc1 [TAMOXIFEN]
Bas (3 h, tissue Blood): 0%
Eos (3 h, tissue Blood): 1%
Fbg (3 h, tissue Blood): 247 mg/dL
Hb (3 h, tissue Blood): 13.1 g/dL
Ht (3 h, tissue Blood): 39.6%
Lym (3 h, tissue Blood): 78.4%
MCHC (3 h, tissue Blood): 33.1%
MCV (3 h, tissue Blood): 64.6 fL
Mono (3 h, tissue Blood): 3.4%
Neu (3 h, tissue Blood): 16.6%
PT (3 h, tissue Blood): 12 s
Plat (3 h, tissue Blood): 122.7 x10_4/uL
RBC (3 h, tissue Blood): 612.6 x10_4/ul
WBC (3 h, tissue Blood): 83.4 x10_2/uL
KIDNEY_L (3 h): 0.8 g
KIDNEY_R (3 h): 0.9 g
KIDNEY_TOTAL (3 h): 1.7 g
LIVER (3 h): 8.4 g
ALT (3 h): 50.6 IU/L
AST (3 h): 81.2 IU/L
BUN (3 h): 11.2 mg/dL
CRE (3 h): 0.2 mg/dL
Cl (3 h): 107.6 meq/L
DBIL (3 h): 0.032 mg/dL
GLC (3 h): 173.4 mg/dL
IP (3 h): 8.9 mg/dL
LDH (3 h): 58.2 IU/L
Na (3 h): 140.4 meq/L
RALB (3 h): 2.6 g/dL
TBIL (3 h): 0.046 mg/dL
TC (3 h): 80.8 mg/dL
TG (3 h): 113.6 mg/dL
TP (3 h): 5.6 g/dL
gamma-GTP (3 h): 1 IU/L
TERMINAL_BW (6 h): 195.3 g
Bas (6 h, tissue Blood): 0%
Eos (6 h, tissue Blood): 1%
Fbg (6 h, tissue Blood): 258.6 mg/dL
Hb (6 h, tissue Blood): 13.1 g/dL
Ht (6 h, tissue Blood): 39.6%
Lym (6 h, tissue Blood): 77.4%
MCH (6 h, tissue Blood): 21.6 pg
MCHC (6 h, tissue Blood): 33.2%
MCV (6 h, tissue Blood): 65.1 fL
Mono (6 h, tissue Blood): 3.2%
Neu (6 h, tissue Blood): 18%
PT (6 h, tissue Blood): 12.1 s
Plat (6 h, tissue Blood): 120.4 x10_4/uL
RBC (6 h, tissue Blood): 608.2 x10_4/ul
WBC (6 h, tissue Blood): 67.4 x10_2/uL
KIDNEY_L (6 h): 0.9 g
KIDNEY_R (6 h): 0.9 g
KIDNEY_TOTAL (6 h): 1.7 g
LIVER (6 h): 8.2 g
ALT (6 h): 41 IU/L
AST (6 h): 77 IU/L
BUN (6 h): 8.2 mg/dL
CRE (6 h): 0.1 mg/dL
Cl (6 h): 108.2 meq/L
DBIL (6 h): 0.014 mg/dL
GLC (6 h): 180.2 mg/dL
IP (6 h): 10.9 mg/dL
LDH (6 h): 93.6 IU/L
Na (6 h): 141.6 meq/L
RALB (6 h): 2.5 g/dL
TBIL (6 h): 0.05 mg/dL
TC (6 h): 81.4 mg/dL
TG (6 h): 46.6 mg/dL
TP (6 h): 5.4 g/dL
gamma-GTP (6 h): 1.4 IU/L
TERMINAL_BW (9 h): 191.5 g
APTT (9 h, tissue Blood): 16 s
Bas (9 h, tissue Blood): 0%
